Where “and” joins values, the source holds several entries; their conditions need not be identical. Equal values may be shown once.
System: Geobacillus stearothermophilus spores
Assay type: cell-based
Procedure: Geobacillus stearothermophilus spores are resuspended in potassium ferricyanide concentrations ranging from 0.5 μg/ml to 200 mg/ml in samples having a spore concentration of 1E8 per ml (1×10^8 spores per milliliter). SCBI vials are inoculated with 20 μl (≈2 million spores) of each of the sample suspensions and air dried at least overnight. The SCBIs are then capped and run in a VHP BIER vessel for the times shown in Table 1 below using a 0.8 g injection of 59% hydrogen peroxide.
Geobacillus stearothermophilus spores are resuspended in Prussian blue concentrations ranging from 0.5 μg/ml to 123 mg/ml at a spore concentration of 1E8 per ml. SCBI vials are inoculated with 20 μl (≈2 million spores) of the appropriate suspension and air dried at least overnight. The SCBIs are then capped and run in a VHF) BIER vessel for the times listed below using a 0.8 g injection of 59% hydrogen peroxide.

For `[C-]#N.[C-]#N.[C-]#N.[C-]#N.[C-]#N.[C-]#N.[C-]#N.[C-]#N.[C-]#N.[C-]#N.[C-]#N.[C-]#N.[C-]#N.[C-]#N.[C-]#N.[C-]#N.[C-]#N.[C-]#N.[Fe+2].[Fe+2].[Fe+2].[Fe+3].[Fe+3].[Fe+3].[Fe+3]` [Prussian Blue, Prussian blue], the “Killed/Total Samples” value was 0/10 and 8/10 and 3/10 and 7/10* and 1/10* and 6/10* and 2/10* and 10/10 and the “grow out results compared with potassium ferricyanide (Table 1)” value was “comparable results”.

Reference: patent US8822174B1, “Sterilization indicator for oxidative sterilants” (priority 2013, dated 2014)
